Results: patent US20260014143A1, “Prostaglandin E synthase 3 (PTGES3) Inhibiting Compounds” (The Regents of the University of California, priority 2022, published 2026)

What follows are compounds tested on Recombinant CysLite PTGES3 (assay: Differential scanning fluorimetry (thermal shift) of fully labeled CysLite PTGES3). Conditions: cyslite PTGES3 fully labeled with compound.
Type: binding
Experimental: Recombinant […] PTGES3 at a concentration of 8 μM in 50 mM HEPES pH 7.5, 150 mM NaCl were incubated with compounds or DMSO for unlabeled comparisons, at ambient temperature until complete labeling was observed by intact protein mass spectrometry. 7K Zeba Desalting columns (ThermoFisher) were used to remove excess compound. The Zeba 7K columns were first preequilibrated with 50 mM HEPES (pH 7.5), 150 mM NaCl. Sypro Orange (500x, DMSO) was added to the purified protein-small molecule conjugates to a final concentration of 5x Sypro Orange. These DSF assays were performed in triplicate in white 96-well plates. The plate was sealed with optically clear PCR sealing film (USA Scientific). The thermal shift assay was performed on a Bio-Rad CFX qPCR instrument. The temperature was increased from 23° C. to 95° C. at a rate of 0.5° C./s. After each temperature step, fluorescence was monitored with an excitation of 492 nm and emission of 610 nm. Raw fluorescence values were normalized between 0 and 1 and fit to a Boltzman equation using GraphPad Prism with the maximum value of the fit constrained to 1.

| Compound | Thermal Shift (Cyslite PTGES3) ΔTm |
| --- | --- |
| C=CS(=O)(=O)N[C@@H]1CN(C(=O)c2ccccc2)C[C@H]1c1ccccc1 [Compound 4] | ΔTm + 1.9 °C |
| C=CS(=O)(=O)N[C@@H]1CN(C(=O)c2ccc(S(N)(=O)=O)c(F)c2)C[C@H]1c1ccccc1 [Compound 9] | ΔTm + 3.3 °C |
| CN(C)CCSSCCNC(=O)[C@@H]1CN(C(=O)c2cc(F)c(O)c(Cl)c2)C[C@H]1c1ccccc1 [Compound 994364] | increases the thermal melt temperature |
| C=CS(=O)(=O)N1CCN(C(=O)[C@@H]2CN(C(=O)c3ccc(S(N)(=O)=O)c(F)c3)C[C@H]2c2ccccc2)CC1 [Compound 12] | No stabilization |
| C=CS(=O)(=O)N[C@@H]1CN(C(=O)c2ccc(S(N)(=O)=O)cc2)C[C@H]1c1ccccc1 [Compound 6] | ΔTm + 3.0 °C |
| C=CS(=O)(=O)N[C@@H]1CN(C(=O)c2ccc(S(N)(=O)=O)c(Cl)c2)C[C@H]1c1ccccc1 [Compound 10] | ΔTm + 3.3 °C |

These compounds were tested on AR+ LNCaP cells (assay: Cell growth of AR+ LNCaP cells). Conditions: not given.
Type: cell-based
Experimental: Normalized to DMSO and analyzed by IncuCyte system (n=3 as biological replicates; Mean±SEM).
(§1) Compounds were tested at 100 uM for the ability to label cysteine 76 of cyslite PTGES3. In some cases labeling was not detected. Cyslite PTGES3 was then fully labeled with the compounds and the thermal shift values of the fully labeled protein was determined with stabilization values indicated below. […] Finally, select compounds were tested to determine if they inhibited cell growth in AR+LNCaP cells.
LNCaP cell lines were grown in the RPMI 1640 medium (Gibco) supplemented with 10% fetal bovine serum (FBS; Gibco). Cells were grown in a humidified 5% CO2 incubator at 37° C.

| Compound | Cell activity (inhibited cell growth in AR+ LNCaP cells) |
| --- | --- |
| C=CS(=O)(=O)N[C@@H]1CN(C(=O)c2ccc(S(N)(=O)=O)c(F)c2)C[C@H]1c1ccccc1 [Compound 9] | Yes |
| C=CS(=O)(=O)N[C@@H]1CN(C(=O)c2ccc(S(N)(=O)=O)cc2)C[C@H]1c1ccccc1 [Compound 6] | Yes |

Each compound was assayed on cysteine 76 of cyslite PTGES3 (assay: Labeling of cysteine 76 of cyslite PTGES3 at 100 uM compound). Conditions: 4 h.
Type: binding
Experimental: as §1

| Compound | 4 h labeling (100 uM) |
| --- | --- |
| C=CS(=O)(=O)N[C@@H]1CN(C(=O)c2ccc(O)cc2)C[C@H]1c1ccccc1 [Compound 5] | 4.71% |
| C=CS(=O)(=O)N[C@@H]1CN(C(=O)c2ccccc2)C[C@H]1c1ccccc1 [Compound 4] | 4.01% |
| C=CS(=O)(=O)N[C@@H]1CN(C(=O)c2ccc(S(N)(=O)=O)c(F)c2)C[C@H]1c1ccccc1 [Compound 9] | 12.38% |
| C=CS(=O)(=O)N1CCN(C(=O)[C@@H]2CN(C(=O)c3ccc(S(N)(=O)=O)c(F)c3)C[C@H]2c2ccccc2)CC1 [Compound 12] | 6.27% |
| C=CS(=O)(=O)N[C@@H]1CN(C(=O)c2ccc(S(N)(=O)=O)cc2)C[C@H]1c1ccccc1 [Compound 6] | 9.61% |
| C=CS(=O)(=O)N[C@@H]1CN(C(=O)c2ccc(S(N)(=O)=O)c(Cl)c2)C[C@H]1c1ccccc1 [Compound 10] | Not detected |
| C=CS(=O)(=O)N[C@@H]1CN(C(=O)c2cc(F)cc(Cl)c2)C[C@H]1c1ccccc1 [Compound 8] | Not detected |

Same assay, conditions: 24 h

| Compound | 24 h labeling (100 uM) [%] |
| --- | --- |
| C=CS(=O)(=O)N[C@@H]1CN(C(=O)c2ccc(O)cc2)C[C@H]1c1ccccc1 [Compound 5] | 35.51 |
| C=CS(=O)(=O)N[C@@H]1CN(C(=O)c2ccccc2)C[C@H]1c1ccccc1 [Compound 4] | 20.75 |
| C=CS(=O)(=O)N[C@@H]1CN(C(=O)c2ccc(S(N)(=O)=O)c(F)c2)C[C@H]1c1ccccc1 [Compound 9] | 51.4 |
| C=CS(=O)(=O)N1CCN(C(=O)[C@@H]2CN(C(=O)c3ccc(S(N)(=O)=O)c(F)c3)C[C@H]2c2ccccc2)CC1 [Compound 12] | 36.65 |
| C=CS(=O)(=O)N[C@@H]1CN(C(=O)c2ccc(S(N)(=O)=O)cc2)C[C@H]1c1ccccc1 [Compound 6] | 44.20 |
| C=CS(=O)(=O)N[C@@H]1CN(C(=O)c2ccc(S(N)(=O)=O)c(Cl)c2)C[C@H]1c1ccccc1 [Compound 10] | 27.44 |
| C=CS(=O)(=O)N[C@@H]1CN(C(=O)c2cc(F)cc(Cl)c2)C[C@H]1c1ccccc1 [Compound 8] | 14.74 |
